Data from patent US7807625B2, “Anti-wrinkle composition” (Grant Industries, Inc, priority 2006, dated 2010).

Test system: type I collagen, normal human dermal fibroblasts
Assay: Collagen assay: type I collagen by sandwich ELISA in fibroblast culture-conditioned medium
Type: cell-based
Settings: 4 days, LbGp 1.25 mg/ml and/or palmitoyl hexapeptide-6 0.20 mg/ml
Experimental: Normal human dermal fibroblasts (Cambrex, Walkersville, Md.) were seeded into a 96-well plate and grown to confluence. They were then challenged with several concentrations of the test samples for 4 days. The fibroblast culture-conditioned medium was harvested and tested for type I collagen by sandwich ELISA using affinity-purified antibodies. Magnesium ascorbyl phosphate (MAP) was tested along with the sample as a positive control.

## palmitoyl hexapeptide-6 [Hydrophobic peptide alone]
  Type I collagen Assay: 420
